{"source": "paper PMC12947280", "about": "“An Antifungal with a Novel Mechanism of Action Discovered via Resistance Gene-Guided Genome Mining” (ACS Central Science, 2026)", "assay_in_all_cases": "Antifungal screening, broth microdilution MIC", "type_in_all_cases": "cell-based", "key": {"[1]": {"test_system": "Rhizopus oryzae ATCC 11886", "settings": "for MIC: Rhizopus arrhizus, ATCC11886, Rhizopus oryzae ATCC 11886", "protocol": "(§1) Antifungal screening of 1\n(§2) Antifungal screening was performed by Micromyx, LLC (Kalamazoo, Michigan, USA). Test organisms were either reference strains from the American Type Culture Collection (ATCC; Manassas, VA), the Centers for Disease Control and Prevention (CDC; Atlanta, GA), or clinical isolates from the Micromyx (MMX) collection. Upon receipt at Micromyx, the isolates were streaked under suitable conditions onto agar medium appropriate to each organism. The yeast isolates were incubated for 24 hr at 35 °C and the fungi were incubated for 7 to 13 days at 35 °C, as appropriate. Colonies harvested from these growth plates were resuspended in the appropriate medium containing a cryoprotectant. Aliquots of each suspension were then frozen […]\n(§3) Prior to testing, the yeast isolates were streaked from frozen vials onto Sabouraud Dextrose Agar (SAB; Becton Dickenson [BD]/BBL; Sparks, MD, Lot No. 2228660) and were incubated at 35°C for 24 hr. Additional fungal isolates were streaked from frozen vials onto potato dextrose agar (BD/BBL; Sparks, MD, Lot No. 2046481) and incubated under optimal conditions for […]\n(§4) All MIC measurements were performed in RPMI1640 from Hyclone Laboratories (Logan, UT;\n(§5) Cat. No. SH3001104; Lot No. AC10257966A) buffered with MOPS to pH-7 from Millipore […]\n(§6) MIC values were determined using a broth microdilution procedure described by CLSI. 5,6.\n(§7) Automated liquid handlers (Multidrop 384, Labsystems, Helsinki, Finland; Biomek 3000 and […]\n(§8) Biomek FX, Beckman Coulter Fullerton CA) were used to conduct serial dilutions and liquid […]\n(§9) Solutions of 1 were added in an 11 point 2x serial dilution in DMSO with a maximum tested concentration of 32 μg/ml in the culture medium. Drug solution was added at 1% v/v into 200 μl […]\n(§10) A standardized inoculum of each test organism was prepared in appropriate media per CLSI methods.5,6 The plates were then inoculated with 10 µL of the diluted inoculum using the Biomek 3000 from low to high drug concentration, resulting in a final concentration of approximately 0.5 to 2.5 x 10^3 CFU/mL for yeast and 0.2 to 2.5 x 10^4 CFU/mL for the other fungi. An un-inoculated plate was incubated for the purpose of assessing solubility of the drug […]\n(§11) The plates were stacked 3 to 4 high, covered with a sterile lid on the top plate, and incubated aerobically at 35 °C for 24, 48, and 72 h. For yeast, both the MIC based on complete inhibition and 50% inhibition were reported at 24 and 48 h. For other fungal isolates, the MIC values were recorded at 24 and 48 hr and were based on complete inhibition and 50% inhibition.\n(§12) Intact protein LCMS analysis\n(§13) 10 μM of recombinant S. cerevisiae ALS was incubated with 10 μM compound 1 in buffer (50 mM Tris pH 7.5, 100 mM KCl, 10 uM FAD, 1 mM TPP, 10 mM MgCl2 (with 2.5% DMSO from compound)) at 22 °C for 30 min. Unreacted 1 was removed by passing the reaction mixture through a 30 kDa MWCO filter (Millipore). The collected protein was then denatured and reduced by incubation with 6 M urea and 10 mM DTT at 37 °C for 1 h followed by 20 mM iodoacetamide alkylation for 30 min in dark. This reaction mixture then underwent buffer exchange into 100 mM Tris-HCl pH 8.0 and 10 mM CaCl2 buffer using a 30 kDa MWCO filter.\n(§14) The protein was then incubated with sequencing grade chymotrypsin (Promega) (15:1,w/w) for […]\n(§15) After digestion, the peptide mixture was immediately analysed by LC-MS/MS using a Waters I-class UPLC equipped with an ACQUITY UPLC BEH C18 column (2.1x50 mm, 1.7 µm, Waters) at 50 °C coupled to a Waters Synapt G2Si MS. The sample was injected and subjected to an LC gradient starting from 0.5% mobile phase B (ACN with 0.1% formic acid) for 5 min with linear increase to 40% B over 35 min. Mobile phase A was 0.1% formic acid water. Flow rate was maintained at 0.3 ml/min. MS/MS data was acquired in positive ionization mode with data dependent MS/MS acquisition. Peptide mapping was performed with PEAKs Studio 8.0 (Bioinformatics Solutions Inc.) followed by manual review to identify peptides putatively modified by covalent addition of 1. […]"}, "[2]": {"test_system": "Aspergillus niger ATCC 9508", "settings": "for MIC: ATCC9508, Aspergillus niger ATCC 9508", "protocol": "as §1, §2, §3, §4, §5, §6, §7, §8, §9, §10, §11, §12, §13, §14, §15"}, "[3]": {"test_system": "Fusarium solani ATCC MYA-3636", "settings": "for MIC: Fusarium solani ATCC MYA-3636", "protocol": "as §1, §2, §3, §4, §5, §6, §7, §8, §9, §10, §11, §12, §13, §14, §15"}, "[4]": {"test_system": "Aspergillus flavus ATCC 204304", "settings": "for MIC: ATCC204304, Aspergillus flavus ATCC 204304", "protocol": "as §1, §2, §3, §4, §5, §6, §7, §8, §9, §10, §11, §12, §13, §14, §15"}, "[5]": {"test_system": "Aspergillus terreus ATCC MYA-3628", "settings": "for MIC: Aspergillus terreus ATCC MYA-3628", "protocol": "as §1, §2, §3, §4, §5, §6, §7, §8, §9, §10, §11, §12, §13, §14, §15"}, "[6]": {"settings": "24 hr, read-out: MIC 100% growth inhibition"}, "[7]": {"settings": "24 hr, read-out: MIC >50% growth inhibition"}, "[8]": {"settings": "48 hr, read-out: MIC 100% growth inhibition"}, "[9]": {"settings": "48 hr, read-out: MIC >50% growth inhibition"}}, "note": "Read-outs that look alike come from different tables or passages of the source."}
{"smiles": "CCCC1C(C)=CC2CC=CC3(C)C2C1C(=O)C31C(=O)NC(CCCO)C1=O", "note": "(stereo not shown) [compound 1]", "values": [{"measurement": "MIC", "setting": "[1]; [6]", "value": 1, "unit": "µg/mL"}, {"measurement": "MIC", "setting": "[1]; [7]", "value": 0.5, "unit": "µg/mL"}, {"measurement": "MIC", "setting": "[1]; [8]", "value": 16, "unit": "µg/mL"}, {"measurement": "MIC", "setting": "[1]; [9]", "value": 8, "unit": "µg/mL"}, {"measurement": "MIC (Table S5)", "setting": "[1]; Rhizopus oryzae, species summary", "value": 1}, {"measurement": "MIC", "setting": "[2]; [6]", "value": 2, "unit": "µg/mL"}, {"measurement": "MIC", "setting": "[2]; [7]", "value": 1, "unit": "µg/mL"}, {"measurement": "MIC", "setting": "[2]; [8]", "value": 32, "unit": "µg/mL"}, {"measurement": "MIC", "setting": "[2]; [9]", "value": 8, "unit": "µg/mL"}, {"measurement": "MIC (Table S5)", "setting": "[2]; Aspergillus niger, species summary", "value": 2}, {"measurement": "MIC", "setting": "[3]; [6]", "value": "> 32", "unit": "µg/mL"}, {"measurement": "MIC", "setting": "[3]; [7]", "value": "> 32", "unit": "µg/mL"}, {"measurement": "MIC", "setting": "[3]; [8]", "value": "> 32", "unit": "µg/mL"}, {"measurement": "MIC", "setting": "[3]; [9]", "value": "> 32", "unit": "µg/mL"}, {"measurement": "MIC (Table S5)", "setting": "[3]; Fusarium solani, species summary", "value": "> 32"}, {"measurement": "MIC", "setting": "[4]; [6]", "value": "> 32", "unit": "µg/mL"}, {"measurement": "MIC", "setting": "[4]; [7]", "value": "> 32", "unit": "µg/mL"}, {"measurement": "MIC", "setting": "[4]; [8]", "value": "> 32", "unit": "µg/mL"}, {"measurement": "MIC", "setting": "[4]; [9]", "value": "> 32", "unit": "µg/mL"}, {"measurement": "MIC (Table S5)", "setting": "[4]; Aspergillus flavus, species summary", "value": "> 32"}, {"measurement": "MIC", "setting": "[5]; [6]", "value": "> 32", "unit": "µg/mL"}, {"measurement": "MIC", "setting": "[5]; [7]", "value": "> 32", "unit": "µg/mL"}, {"measurement": "MIC", "setting": "[5]; [8]", "value": "> 32", "unit": "µg/mL"}, {"measurement": "MIC", "setting": "[5]; [9]", "value": "> 32", "unit": "µg/mL"}, {"measurement": "MIC (Table S5)", "setting": "[5]; Aspergillus terreus, species summary", "value": "> 32"}]}
